Values joined by “and” are separate entries in the source; they are usually repeats but may differ in a detail not shown here. Equal values may be shown once.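 Test compounds were applied to cells in 96-well plates for 48 hours at 5 doses. The concentration for 50% growth inhibition is given as GI50. The concentration for full growth arrest is given as TGI.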
How the values were obtained:
Test in all cases: NCI tumour cell line growth inhibition, 48 h
[1] = system: DLD-1 colon
[2] = system: HOP-18 NSCLC
[3] = system: KM20L2 colon
[4] = system: M19-MEL melanoma
[5] = system: RXF-631 renal
[6] = system: SNB-78 CNS
[7] = system: XF 498 CNS
[8] = system: MDA-N
[9] = system: PC-3 prostate
[10] = system: P388 leukemia
[11] = system: P388/ADR leukemia
[12] = system: SN12K1 renal

Compound | TGI [1] | TGI [2] | TGI [3] | TGI [4] | TGI [5] | TGI [6] [µM] | TGI [7] | TGI [8] | TGI [9] | GI50 [1] [µM] | GI50 [2] [µM] | GI50 [3] [µM] | GI50 [4] [µM] | GI50 [8] [µM] | TGI [10] [µM] | TGI [11] [µM] | GI50 [9] [µM] | GI50 [5] [µM] | TGI [12] [µM] | GI50 [7] [µM]
CCCCCCCCCCCCCCC1OC(=O)c2ccccc21 (configuration not stated) | > 100 µM | > 100 µM | > 100 µM | > 100 µM | > 100 µM | > 100 |  |  |  |  |  |  |  |  |  |  |  |  |  | 
CN(C)CCNC(=O)c1cccc2nc3c(Cl)cccc3nc12 | 42.2 µM | > 88 µM | 32.2 µM | 13.1 µM | > 100 µM |  | 11.7 µM |  |  |  |  |  |  |  |  |  |  |  |  | 
CC1CCC[P+](Cc2ccccc2)(c2ccccc2)CC1 (configuration not stated) | > 100 µM | 13 µM | > 100 µM | > 100 µM | > 100 µM | > 100 | > 100 µM |  |  |  |  |  |  |  |  |  |  |  |  | 
COC(=O)c1c(OC)cccc1C(=O)O |  | > 100 µM | > 100 µM | > 100 µM | > 100 µM | > 100 |  |  |  |  |  |  |  |  |  |  |  |  |  | 
CCOC(=O)CCCO | > 100 µM | > 100 µM | > 100 µM |  | > 100 µM |  | > 100 µM |  |  |  |  |  |  |  |  |  |  |  |  | 
C#CC(C)(C)Oc1cc(O)c2c(=O)c3ccccc3n(C)c2c1 |  | > 100 µM | > 100 µM |  | > 100 µM | > 100 | > 100 µM |  |  |  |  |  |  |  |  |  |  |  |  | 
Cc1cc(C)nc(NS(=O)(=O)c2ccc(NC(=O)c3cccc4c(=O)c5ccccc5[nH]c34)cc2)n1 | 45.6 µM | 47.2 µM | 40.5 µM |  | > 100 µM | 48.6 | 40.6 µM |  |  |  |  |  |  |  |  |  |  |  |  | 
C[Si](C)(C)c1ccc(CC2(Cc3ccc([Si](C)(C)C)cc3)CCNC2)cc1 | 6.87 µM | 9.12 µM | 3.93 µM | 3.64 µM | 5.36 µM | 8.87 |  |  |  |  |  |  |  |  |  |  |  |  |  | 
COc1cc2c(c(O)c1C)C(=O)C(Cl)=CC2=O | 48.5 µM | 30.1 µM | 49.1 µM | 20.9 µM | 17.6 µM | 17.4 | 35.2 µM | 12.1 µM | 28.7 µM |  |  |  |  |  |  |  |  |  |  | 
OCc1c(-c2cccc3ccccc23)sc(-c2cccc3ccccc23)c1CO |  | 26.4 µM | 24.6 µM | 29.4 µM | 37.9 µM | 31.5 | 19.3 µM |  |  |  |  |  |  |  |  |  |  |  |  | 
O=C(O)CCCc1ccc(N(CCCl)CCCl)cc1 | 54.8 µM and 280 µM | > 70 µM and 267 µM | 60.9 µM and 379 µM | 51.8 µM and 238 µM | 47.7 µM and 277 µM |  | 31.9 µM and 158 µM | 271 µM and 325 µM | 416 µM and 609 µM | 24.3 | 17.7 | 27.8 | 22.3 | 194 | 135 | 154 | 210 | 19.7 | 238 | 12.1
CN1CCCNCCN(CCc2ccccn2)CCCN(C)CC1 | > 100 µM | > 100 µM | > 100 µM | > 100 µM | > 100 µM | > 100 | > 100 µM |  |  |  |  |  |  |  |  |  |  |  |  | 
CC1(C)N=C(N)N=C(N)N1c1ccc(CCCCc2ccc(S(=O)(=O)F)cc2Cl)c(Cl)c1 | 118 µM | 121 µM | 163 µM |  |  | 48.6 | 3 µM | 39.5 µM | 112 µM |  |  |  |  |  | 6.36 | 7.56 |  |  | 6.92 | 
Cc1c(C(=O)/C=C/c2cccc3ccccc23)[n+](=O)c2ccccc2n1[O-] | 23.3 µM | 28.6 µM | 27.9 µM | 26.4 µM | 56.4 µM | 47.8 |  |  |  |  |  |  |  |  |  |  |  |  |  | 
CC1=CCCC(OC(N)=O)C1 (configuration not stated) | > 100 µM | > 100 µM | > 100 µM | > 100 µM | > 100 µM | > 100 | > 100 µM |  |  |  |  |  |  |  |  |  |  |  |  | 
C/C(=N\NC(N)=S)c1ccc(C)cc1C | > 100 µM | > 100 µM | > 100 µM | > 100 µM | > 100 µM | > 100 | > 100 µM |  |  |  |  |  |  |  |  |  |  |  |  | 
O=C1CC[C@H]2CNC(=O)C[C@H]2C1 | > 100 µM |  |  | > 100 µM | > 100 µM | > 100 | > 100 µM |  |  |  |  |  |  |  |  |  |  |  |  | 
